Laboratory results published in US6472393B1, “Serine protease inhibitors” (Genentech, Inc., priority 1999, dated 2002).

How the values were obtained:
Assay type in all cases: biochemical
[1] = molecular target: T1, Tissue Factor/factor VIIa (recombinant human factor VIIa, soluble Tissue Factor (1-219)) (Homo sapiens, UniProt P08709); assay: Tissue Factor/Factor VIIa antagonist assay (Ki, chromogenic substrate Chromozym-tPA); conditions: read-out: Ki(TFVIIa)
T1 construct: recombinant human factor VIIa (NB #25942-16); NB #25942-16
T1 sequence (P08709 213-466 limits assumed): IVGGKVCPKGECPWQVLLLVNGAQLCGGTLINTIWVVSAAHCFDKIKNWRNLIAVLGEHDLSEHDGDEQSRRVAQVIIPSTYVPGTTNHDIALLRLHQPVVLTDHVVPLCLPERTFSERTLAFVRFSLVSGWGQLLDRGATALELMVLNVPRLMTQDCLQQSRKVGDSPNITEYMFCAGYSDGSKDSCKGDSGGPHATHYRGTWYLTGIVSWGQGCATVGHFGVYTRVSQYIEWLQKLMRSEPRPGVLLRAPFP
T1 sequence (P08709 61-212 limits assumed): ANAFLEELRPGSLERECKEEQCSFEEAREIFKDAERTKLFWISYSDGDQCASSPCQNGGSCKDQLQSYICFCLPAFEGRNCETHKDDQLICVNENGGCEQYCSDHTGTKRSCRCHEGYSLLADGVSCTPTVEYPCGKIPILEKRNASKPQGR
T1 sequence (P13726 33-251 partner limits assumed): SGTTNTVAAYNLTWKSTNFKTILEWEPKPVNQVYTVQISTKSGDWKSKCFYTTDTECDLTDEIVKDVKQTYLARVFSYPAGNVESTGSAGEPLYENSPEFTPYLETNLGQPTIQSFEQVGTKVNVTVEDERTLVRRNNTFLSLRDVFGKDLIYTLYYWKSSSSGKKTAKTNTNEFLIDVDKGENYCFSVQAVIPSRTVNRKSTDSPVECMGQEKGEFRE
Protocol: Tissue Factor/Factor VIIa Antagonist Assay
This procedure can be used to determine the constant of inhibition (Ki) for a sample compound of the invention.
1. Prepare a solution of 2 μg/mL (90 nM) tissue factor and 1.5 μg/mL (30 nM) factor VIIa in assay buffer with CaCl2.
2. Incubate for 15 minutes at room temperature.
3. Add 50 μL sample to each well.
4. Add 50 μL tissue factor/factor VIIa solution to each well.
5. Incubate for 15 minutes at room temperature with gentle agitation.
6. Add 50 μL substrate to each well.
7. Agitate plate for 20-25 sec.
8. Monitor absorbance at 405 nm every 10 sec for a total of 5 minutes at room temperature.
9. Calculate Vmax over 10 points.
(§1) Assay—Enzyme, Substrate and Final Concentrations

[2] = molecular target: T2, human Plasma Kallikrein (Homo sapiens, UniProt P03952); assay: Plasma Kallikrein assay (Ki, chromogenic substrate S-2302)
T2 construct: Factor Xa, Thrombin, and Plasma Kallikrein Assays
T2 sequence (P03952 391-638 limits assumed): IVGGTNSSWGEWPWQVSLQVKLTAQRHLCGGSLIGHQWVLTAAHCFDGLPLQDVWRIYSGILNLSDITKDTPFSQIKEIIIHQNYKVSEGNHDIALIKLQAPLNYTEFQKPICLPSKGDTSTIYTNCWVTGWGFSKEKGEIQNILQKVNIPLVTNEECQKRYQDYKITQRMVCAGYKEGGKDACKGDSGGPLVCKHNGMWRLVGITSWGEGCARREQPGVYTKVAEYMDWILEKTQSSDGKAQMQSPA
T2 sequence (P03952 20-390 limits assumed): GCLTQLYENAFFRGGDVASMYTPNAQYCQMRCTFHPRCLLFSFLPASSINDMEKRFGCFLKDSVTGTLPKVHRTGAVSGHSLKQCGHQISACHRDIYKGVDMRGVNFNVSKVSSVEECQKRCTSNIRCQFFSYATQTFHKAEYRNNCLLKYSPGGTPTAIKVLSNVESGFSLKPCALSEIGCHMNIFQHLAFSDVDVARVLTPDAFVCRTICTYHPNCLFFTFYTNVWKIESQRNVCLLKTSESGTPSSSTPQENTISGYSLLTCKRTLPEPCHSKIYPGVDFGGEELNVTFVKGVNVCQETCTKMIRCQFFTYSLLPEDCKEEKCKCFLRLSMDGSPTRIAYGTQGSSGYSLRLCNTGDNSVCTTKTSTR
Protocol: (§2) Factor Xa, Thrombin, and Plasma Kallikrein Assays
(§3) These procedures can be used to determine the constant of inhibition (Ki) for a sample compound of the invention.
(§4) 1. Add 50 μL sample to each well.
(§5) 2. Add 50 μL appropriately diluted coagulation factor to each well.
(§6) 3. Incubate for 5 minutes at room temperature with gentle agitation.
(§7) 4. Add 50 μL appropriately diluted substrate to each well.
(§8) 5. Agitate plate for 20-25 sec.
(§9) 6. Monitor absorbance at 405 nm every 10 sec for a total of 5 minutes at room temperature.
(§10) 7. Calculate Vmax over 10 points.
as §1

[3] = molecular target: T3, human Thrombin (Homo sapiens, UniProt P00734); assay: Thrombin assay (Ki, chromogenic substrate S-2366); conditions: read-out: Ki(IIa)
T3 construct: rapidly converts prothrombin to thrombin
Protocol: as §2, §3, §4, §5, §6, §7, §8, §9, §10, §1

[4] = molecular target: T4, human Factor Xa (Homo sapiens, UniProt P00742); assay: Factor Xa assay (Ki, chromogenic substrate S-2222)
T4 construct: This complex converts factor X to Xa
T4 sequence (P00742 235-488 limits assumed): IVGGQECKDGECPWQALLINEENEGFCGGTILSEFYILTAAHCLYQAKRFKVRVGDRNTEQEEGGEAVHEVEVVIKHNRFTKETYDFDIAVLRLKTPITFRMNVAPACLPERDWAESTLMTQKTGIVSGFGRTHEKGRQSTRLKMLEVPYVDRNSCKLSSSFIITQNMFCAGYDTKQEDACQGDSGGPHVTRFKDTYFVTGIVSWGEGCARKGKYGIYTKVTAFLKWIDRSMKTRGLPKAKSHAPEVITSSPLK
T4 sequence (P00742 41-179 limits assumed): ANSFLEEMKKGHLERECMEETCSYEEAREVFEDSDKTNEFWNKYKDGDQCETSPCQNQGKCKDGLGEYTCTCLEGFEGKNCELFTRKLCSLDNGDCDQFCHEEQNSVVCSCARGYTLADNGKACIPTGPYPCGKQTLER
Protocol: as §2, §3, §4, §5, §6, §7, §8, §9, §10, §1

Ki [1] [nM] | Ki [2] [nM] | Ki [3] [nM] | Ki [4] [nM] | SMILES
7 | – | – | – | CCOc1cc(OCC)cc(C(Nc2ccc(C(=N)N)cc2)C(=O)NS(=O)(=O)c2ccccc2)c1 (stereo not shown)
5 | 2 | – | – | CCOc1ccc(C(Nc2ccc(C(=N)N)cc2)C(=O)NS(=O)(=O)c2ccccc2)cc1OCC (stereo not shown)
– | – | 16 | – | COc1cc(C(CNS(=O)(=O)c2cccs2)Nc2ccc(C(=N)N)cc2)ccc1OCc1ccccc1 (stereo not shown) [4-[1-(4-Benzyloxy-3-methoxy-phenyl)-2-(thiophene-2-sulfonylamino)-ethylamino]-benzamidine]
4 | – | – | – | CCCS(=O)(=O)NCC(Nc1ccc(C(=N)N)cc1)c1cc(OCC)c(OCc2ccccc2)cc1NS(C)(=O)=O (stereo not shown) [4-[1-(4-Benzyloxy-5-ethoxy-2-methanesulfonylamino-phenyl)-2-(propane-1-sulfonylamino)-ethylamino]benzamidine]
– | – | 1 | – | COc1cc(C(CNS(=O)(=O)c2ccccc2)Nc2ccc(C(=N)N)cc2)ccc1OC(CCl)c1ccccc1 (stereo not shown) [4-{2-benzenesulfonylamino-1-[4-(2-chloro-1-phenyl-ethoxy)-3-methoxy-phenyl]-ethylamino}-benzamidine]

The next lines start with the molecule.

SMILES | Ki [1] [nM] | Ki [2] [nM] | Ki [3] [nM] | Ki [4] [nM]
CCCS(=O)(=O)NCC(Nc1ccc(C(=N)N)cc1)c1cc(OCC)c(OCC(C)C)cc1NS(=O)(=O)CCC (stereo not shown) | – | 1 | – | –
CCCS(=O)(=O)NCC(Nc1ccc(C(=N)N)cc1)c1cc(OCC)c(OC(C)C)cc1NS(C)(=O)=O (stereo not shown) | – | 1 | – | –
CCOc1cc(C(Nc2ccc(C(=N)N)cc2)C(=O)NS(=O)(=O)c2ccccc2)ccc1OC(C)C (stereo not shown) [4-{2-benzenesulfonylamino-1-[4-isopropoxy,5-ethoxy)-phenyl]-2-oxo-ethylamino}benzamidine] | 3 | – | 113 | 898
CCCCS(=O)(=O)NC(=O)C(Nc1ccc(C(=N)N)cc1)c1ccc(OC(C)C)c(OCC)c1 (stereo not shown) [4-{2-butylsulfonylamino-1-[4-isopropoxy,5-ethoxy)-phenyl]-2-oxo-ethylamino}benzamidine] | – | – | – | 624
CCOc1cc(C(Nc2ccc(C(=N)N)cc2)C(=O)NS(=O)(=O)CC)ccc1OC(C)C (stereo not shown) [4-{2-ethylsulfonylamino-1-[4-isopropoxy,5-ethoxy)-phenyl]-2-oxo-ethylamino}benzamidine] | – | 11 | – | 565
CCCS(=O)(=O)NCC(Nc1ccc(C(=N)N)cc1)c1ccc(OC(CCl)c2ccccc2)c(OC)c1 (stereo not shown) [4-{2-propanesulfonylamino-1-[4-(2-chloro-1-phenyl-ethoxy)-3-methoxy-phenyl]-ethylamino}-benzamidine] | – | – | 1 | 140
